Results from PubChem BioAssay AID1259407 (Chemical Carcinogenesis Research Information System (CCRIS), 2018).
Calls of active or inactive are those of the source. No rule for the calls is given here.

Test system: CCRIS mutagenicity, Ames/micronucleus/aberration tests
Assay: CCRIS mutagenicity studies
[1] = Test System: AMES SALMONELLA TYPHIMURIUM, Strain/Indicator: TA98, Metabolic Activation: NONE, Method: PREINCUBATION
[2] = Test System: AMES SALMONELLA TYPHIMURIUM, Strain/Indicator: TA100, Metabolic Activation: NONE, Method: PREINCUBATION
[3] = Test System: AMES SALMONELLA TYPHIMURIUM, Strain/Indicator: TA97, Metabolic Activation: HAMSTER, LIVER, S-9, AROCLOR 1254 (10 OR 30%), Method: PREINCUBATION
[4] = Test System: AMES SALMONELLA TYPHIMURIUM, Strain/Indicator: TA97, Metabolic Activation: NONE, Method: PREINCUBATION
[5] = Test System: AMES SALMONELLA TYPHIMURIUM, Strain/Indicator: TA98, Metabolic Activation: HAMSTER, LIVER, S-9, AROCLOR 1254 (10 OR 30%), Method: PREINCUBATION
[6] = Test System: AMES SALMONELLA TYPHIMURIUM, Strain/Indicator: TA100, Metabolic Activation: HAMSTER, LIVER, S-9, AROCLOR 1254 (10 OR 30%), Method: PREINCUBATION
[7] = Test System: AMES SALMONELLA TYPHIMURIUM, Strain/Indicator: TA100, Metabolic Activation: NONE, Method: STANDARD PLATE
[8] = Test System: AMES SALMONELLA TYPHIMURIUM, Strain/Indicator: TA1535, Metabolic Activation: HAMSTER, LIVER, S-9, AROCLOR 1254 (10 OR 30%), Method: PREINCUBATION
[9] = Test System: AMES SALMONELLA TYPHIMURIUM, Strain/Indicator: TA1535, Metabolic Activation: NONE, Method: PREINCUBATION

Measured: mutagenic call

CCc1ccccc1N
inactive: [1] inactive; negative | Test System: AMES SALMONELLA TYPHIMURIUM, Strain/Indicator: TA98, Metabolic Activation: S-9, Method: PREINCUBATION inactive; negative | [2] inactive; negative | Test System: AMES SALMONELLA TYPHIMURIUM, Strain/Indicator: TA100, Metabolic Activation: S-9, Method: PREINCUBATION inactive; negative | Test System: UDS RODENT HEPATOCYTES, Strain/Indicator: THY INCORP (NON-S-PHASE), Metabolic Activation: NONE, Method: AUTORADIOGRAPHY inactive; negative

C[C@H](CCC(=O)O)[C@H]1CC[C@H]2[C@@H]3CC[C@@H]4C[C@H](O)CC[C@]4(C)[C@H]3CC[C@]12C
inactive: [3] inactive; negative | [4] inactive; negative | Test System: AMES SALMONELLA TYPHIMURIUM, Strain/Indicator: TA97, Metabolic Activation: RAT, LIVER, S-9, AROCLOR 1254 (10%), Method: PREINCUBATION inactive; negative | Test System: AMES SALMONELLA TYPHIMURIUM, Strain/Indicator: TA97, Metabolic Activation: RAT, LIVER, S-9, AROCLOR 1254 (30%), Method: PREINCUBATION inactive; negative | [5] inactive; negative | Test System: AMES SALMONELLA TYPHIMURIUM, Strain/Indicator: TA98, Metabolic Activation: NONE, Method: FLUCTUATION TEST inactive; negative | [1] inactive; negative | Test System: AMES SALMONELLA TYPHIMURIUM, Strain/Indicator: TA98, Metabolic Activation: RAT, LIVER, S-9, AROCLOR 1254 (10%), Method: PREINCUBATION inactive; negative | Test System: AMES SALMONELLA TYPHIMURIUM, Strain/Indicator: TA98, Metabolic Activation: RAT, LIVER, S-9, AROCLOR 1254 (30%), Method: PREINCUBATION inactive; negative | Test System: AMES SALMONELLA TYPHIMURIUM, Strain/Indicator: TA98, Method: PREINCUBATION inactive; negative | [6] inactive; negative | Test System: AMES SALMONELLA TYPHIMURIUM, Strain/Indicator: TA100, Metabolic Activation: NONE, Method: FLUCTUATION TEST inactive; negative | [2] inactive; negative | [7] inactive; negative | Test System: AMES SALMONELLA TYPHIMURIUM, Strain/Indicator: TA100, Metabolic Activation: RAT, LIVER, S-9, AROCLOR 1254 (10%), Method: PREINCUBATION inactive; negative | Test System: AMES SALMONELLA TYPHIMURIUM, Strain/Indicator: TA100, Metabolic Activation: RAT, LIVER, S-9, AROCLOR 1254 (30%), Method: PREINCUBATION inactive; negative | Test System: AMES SALMONELLA TYPHIMURIUM, Strain/Indicator: TA100, Metabolic Activation: RAT, LIVER, S-9, AROCLOR 1254, Method: STANDARD PLATE inactive; negative | [8] inactive; negative | [9] inactive; negative | Test System: AMES SALMONELLA TYPHIMURIUM, Strain/Indicator: TA1535, Metabolic Activation: RAT, LIVER, S-9, AROCLOR 1254 (10%), Method: PREINCUBATION inactive; negative | Test System: AMES SALMONELLA TYPHIMURIUM, Strain/Indicator: TA1535, Metabolic Activation: RAT, LIVER, S-9, AROCLOR 1254 (30%), Method: PREINCUBATION inactive; negative | Test System: E. COLI, Strain/Indicator: WP2 UVRA, Metabolic Activation: HAMSTER, LIVER, S-9, AROCLOR 1254, Method: STANDARD PLATE inactive; negative | Test System: E. COLI, Strain/Indicator: WP2 UVRA, Metabolic Activation: HAMSTER, LIVER, S-9, Method: STANDARD PLATE inactive; negative | Test System: E. COLI, Strain/Indicator: WP2 UVRA, Metabolic Activation: MOUSE, LIVER, S-9, AROCLOR 1254, Method: STANDARD PLATE inactive; negative | Test System: E. COLI, Strain/Indicator: WP2 UVRA, Metabolic Activation: MOUSE, LIVER, S-9, Method: STANDARD PLATE inactive; negative | Test System: E. COLI, Strain/Indicator: WP2 UVRA, Metabolic Activation: NONE, Method: STANDARD PLATE inactive; negative | Test System: E. COLI, Strain/Indicator: WP2 UVRA, Metabolic Activation: RAT, LIVER, S-9, AROCLOR 1254, Method: STANDARD PLATE inactive; negative | Test System: E. COLI, Strain/Indicator: WP2 UVRA, Metabolic Activation: RAT, LIVER, S-9, Method: STANDARD PLATE inactive; negative | Test System: MOUSE LYMPHOMA, Strain/Indicator: L5178Y (TK+/TK-), Metabolic Activation: RAT, LIVER, S-9, AROCLOR 1254, Method: SUSPENSION/PLATE inactive; negative | Test System: MOUSE LYMPHOMA, Strain/Indicator: L5178Y (TK+/TK-), Metabolic Activation: RAT, LIVER, S-9, Method: SUSPENSION/PLATE inactive; negative

CC1(C)[C@H](C=C(Cl)Cl)[C@H]1C(=O)OCc1cccc(Oc2ccccc2)c1
inactive: Test System: AMES SALMONELLA TYPHIMURIUM, Strain/Indicator: TA97, Metabolic Activation: NONE, Method: STANDARD PLATE inactive; negative | Test System: AMES SALMONELLA TYPHIMURIUM, Strain/Indicator: TA97, Metabolic Activation: RAT, LIVER, S-9, PHENOBARBITONE, Method: STANDARD PLATE inactive; negative | Test System: AMES SALMONELLA TYPHIMURIUM, Strain/Indicator: TA98, Metabolic Activation: NONE, Method: STANDARD PLATE inactive; negative | Test System: AMES SALMONELLA TYPHIMURIUM, Strain/Indicator: TA98, Metabolic Activation: RAT, LIVER, S-9, PHENOBARBITONE, Method: STANDARD PLATE inactive; negative | [7] inactive; negative | Test System: AMES SALMONELLA TYPHIMURIUM, Strain/Indicator: TA100, Metabolic Activation: RAT, LIVER, S-9, PHENOBARBITONE, Method: STANDARD PLATE inactive; negative | Test System: AMES SALMONELLA TYPHIMURIUM, Strain/Indicator: TA104, Metabolic Activation: NONE, Method: STANDARD PLATE inactive; negative | Test System: AMES SALMONELLA TYPHIMURIUM, Strain/Indicator: TA104, Metabolic Activation: RAT, LIVER, S-9, PHENOBARBITONE, Method: STANDARD PLATE inactive; negative

CCCCCCCCCC(=O)O
inactive: [3] inactive; negative | [4] inactive; negative | Test System: AMES SALMONELLA TYPHIMURIUM, Strain/Indicator: TA97, Metabolic Activation: RAT, LIVER, S-9, AROCLOR 1254 (10 OR 30%), Method: PREINCUBATION inactive; negative | [5] inactive; negative | [1] inactive; negative | Test System: AMES SALMONELLA TYPHIMURIUM, Strain/Indicator: TA98, Metabolic Activation: RAT, LIVER, S-9, AROCLOR 1254 (10 OR 30%), Method: PREINCUBATION inactive; negative | [6] inactive; negative | [2] inactive; negative | Test System: AMES SALMONELLA TYPHIMURIUM, Strain/Indicator: TA100, Metabolic Activation: RAT, LIVER, S-9, AROCLOR 1254 (10 OR 30%), Method: PREINCUBATION inactive; negative | [8] inactive; negative | [9] inactive; negative | Test System: AMES SALMONELLA TYPHIMURIUM, Strain/Indicator: TA1535, Metabolic Activation: RAT, LIVER, S-9, AROCLOR 1254 (10 OR 30%), Method: PREINCUBATION inactive; negative | Test System: AMES SALMONELLA TYPHIMURIUM, Strain/Indicator: TA1537, Metabolic Activation: HAMSTER, LIVER, S-9, AROCLOR 1254 (10 OR 30%), Method: PREINCUBATION inactive; negative | Test System: AMES SALMONELLA TYPHIMURIUM, Strain/Indicator: TA1537, Metabolic Activation: NONE, Method: PREINCUBATION inactive; negative | Test System: AMES SALMONELLA TYPHIMURIUM, Strain/Indicator: TA1537, Metabolic Activation: RAT, LIVER, S-9, AROCLOR 1254 (10 OR 30%), Method: PREINCUBATION inactive; negative
